What was measured:
[1] = tested on: LoVo; assay: CellTiter-Glo IG50, Example 8, LoVo; assay type: cell-based; conditions: Homo sapiens, 72 hours
Procedure: (§1) Various pancreatic, liver, colon, breast, and stomach cancer cell lines were exposed to the NF-κB inhibitors of the present invention, including, for example, IT-839, IT-843, IT-848, and IT-878, and assessed for IG50 in the CellTiter Glo 2.0 assay.
(§2) The cells were cultured in an atmosphere of 37° C., 5% CO2 and 95% humidity. All culture media and FBS were purchased from GIBCO, Hyclone or Sigma, USA. The media used for cell culture is described in the table below.
(§3) The cells were harvested during the logarithmic growth period and counted. Cell concentrations were adjusted to the appropriate number in appropriate medium and 90 μl cell suspensions were added to 96-well plates. When cells were added, the plates were shaken gently to distribute the cells evenly. Cells were incubated at 37° C. and 5% CO2.
(§4) 3× serial dilutions of test compound stock solutions with respective solvents were prepared. The stock solutions were diluted with culture medium to generate 10× working solutions of the test compounds. 10 μl of the 10× test compound solutions were added to each well in triplicate for each concentration. Plates were incubated for 72 hours in a humidified incubator at 37° C. and 5% CO2.
(§5) CellTiter-Glo (CTG) solution was thawed and equilibrated to room temperature. 50 μl of CTG were added to each well and the contents were mixed for 2 minutes on a plate shaker. Cells were incubated for 10 minutes before luminescence signal was recorded using Envision.
(§6) Cell viability was plotted with GraphPad Prism version 5 and the IG50 was calculated for each cell line. The graphical curves were fitted using a nonlinear regression model with a sigmoidal dose response. IG50 is the concentration of test drug where 100×T/C=50 (the optical density of the test well after a 3-day period of exposure to test drug is T; the control optical density is C).

[2] = tested on: MKN45; assay: CellTiter-Glo IG50, Example 8, MKN45; assay type: cell-based; conditions: Homo sapiens, MKN-45, MKN45, 72 hours
Procedure: as §1, §2, §3, §4, §5, §6

[3] = tested on: HT-29; assay: CellTiter-Glo IG50, Example 8, HT-29; assay type: cell-based; conditions: Homo sapiens, HT-29, 72 hours
Procedure: as §1, §2, §3, §4, §5, §6

[4] = tested on: HCT116; assay: CellTiter-Glo IG50, Example 8, HCT116; assay type: cell-based; conditions: Homo sapiens, HCT-116, HCT116, 72 hours
Procedure: as §1, §2, §3, §4, §5, §6

[5] = tested on: AGS; assay: CellTiter-Glo IG50, Example 8, AGS; assay type: cell-based; conditions: Homo sapiens, 72 hours
Procedure: as §1, §2, §3, §4, §5, §6

[6] = tested on: KATO III; assay: CellTiter-Glo IG50, Example 8, KATO III; assay type: cell-based; conditions: Homo sapiens, 72 hours
Procedure: as §1, §2, §3, §4, §5, §6

[7] = tested on: Capan-1; assay: CellTiter-Glo IG50, Example 8, Capan-1; assay type: cell-based; conditions: Homo sapiens, Capan-1, 72 hours
Procedure: as §1, §2, §3, §4, §5, §6

[8] = tested on: T47D; assay: CellTiter-Glo IG50, Example 8, T47D; assay type: cell-based; conditions: Homo sapiens, 72 hours
Procedure: as §1, §2, §3, §4, §5, §6

[9] = tested on: MDA-MB-231; assay: CellTiter-Glo IG50, Example 8, MDA-MB-231; assay type: cell-based; conditions: Homo sapiens, MDA-MB-231, 72 hours
Procedure: as §1, §2, §3, §4, §5, §6

[10] = tested on: MCF-7; assay: CellTiter-Glo IG50, Example 8, MCF-7; assay type: cell-based; conditions: Homo sapiens, MCF7, MCF-7, 72 hours
Procedure: as §1, §2, §3, §4, §5, §6

[11] = tested on: PANC-1; assay: CellTiter-Glo IG50, Example 8, PANC-1; assay type: cell-based; conditions: Homo sapiens, PANC-1, 72 hours
Procedure: as §1, §2, §3, §4, §5, §6

[12] = tested on: MIAPACA-2; assay: CellTiter-Glo IG50, Example 8, MIAPACA-2; assay type: cell-based; conditions: Homo sapiens, MIA PaCa-2, MIAPACA-2, 72 hours
Procedure: as §1, §2, §3, §4, §5, §6

[13] = tested on: SNU878; assay: CellTiter-Glo IG50, Example 9 HCC panel, SNU878; assay type: cell-based; conditions: SNU878, 72 hours
Procedure: as §3, §4, §5, §6, §2
(§7) Following the cell culture protocol and data analysis methods described in Example 8, the following IG50 results (in μM) were observed: […]

[14] = tested on: JHH5; assay: CellTiter-Glo IG50, Example 9 HCC panel, JHH5; assay type: cell-based; conditions: JHH5, 72 hours
Procedure: as §3, §4, §5, §6, §2, §7

[15] = tested on: Hep3B; assay: CellTiter-Glo IG50, Example 9 HCC panel, Hep3B; assay type: cell-based; conditions: Homo sapiens, 72 hours
Procedure: as §3, §4, §5, §6, §2, §7

[16] = tested on: PLC/PRF/5; assay: CellTiter-Glo IG50, Example 9 HCC panel, PLC/PRF/5; assay type: cell-based; conditions: Homo sapiens, PLC/PRF/5, 72 hours
Procedure: as §3, §4, §5, §6, §2, §7

[17] = tested on: HUH7; assay: CellTiter-Glo IG50, Example 9 HCC panel, HUH7; assay type: cell-based; conditions: Homo sapiens, Huh-7, HUH7, 72 hours
Procedure: as §3, §4, §5, §6, §2, §7

[18] = tested on: PBMC; assay: CellTiter-Glo IG50, Example 9 HCC panel, PBMC; assay type: cell-based; conditions: 72 hours
Procedure: as §3, §4, §5, §6, §2, §7

[19] = tested on: HepG2; assay: CellTiter-Glo IG50, Example 9 HCC panel, HepG2; assay type: cell-based; conditions: Homo sapiens, HepG2, 72 hours
Procedure: as §3, §4, §5, §6, §2, §7

[20] = tested on: PLC/PRF/5; assay: CellTiter-Glo IG50, Example 8, PLC/PRF/5; assay type: cell-based; conditions: Homo sapiens, PLC/PRF/5, 72 hours
Procedure: as §1, §2, §3, §4, §5, §6

[21] = tested on: HepG2; assay: CellTiter-Glo IG50, Example 8, HepG2; assay type: cell-based; conditions: Homo sapiens, HepG2, 72 hours
Procedure: as §1, §2, §3, §4, §5, §6

[22] = tested on: Hep3B; assay: CellTiter-Glo IG50, Example 8, Hep3B; assay type: cell-based; conditions: Homo sapiens, 72 hours
Procedure: as §1, §2, §3, §4, §5, §6

[23] = biological target: T1, c-Rel protein (Homo sapiens, UniProt Q04864); assay: Electrophoretic Mobility Shift Assay (EMSA), c-Rel binding to CD28RE oligonucleotide; conditions: 10 nM c-Rel protein
T1 sequence (Q04864 1-619): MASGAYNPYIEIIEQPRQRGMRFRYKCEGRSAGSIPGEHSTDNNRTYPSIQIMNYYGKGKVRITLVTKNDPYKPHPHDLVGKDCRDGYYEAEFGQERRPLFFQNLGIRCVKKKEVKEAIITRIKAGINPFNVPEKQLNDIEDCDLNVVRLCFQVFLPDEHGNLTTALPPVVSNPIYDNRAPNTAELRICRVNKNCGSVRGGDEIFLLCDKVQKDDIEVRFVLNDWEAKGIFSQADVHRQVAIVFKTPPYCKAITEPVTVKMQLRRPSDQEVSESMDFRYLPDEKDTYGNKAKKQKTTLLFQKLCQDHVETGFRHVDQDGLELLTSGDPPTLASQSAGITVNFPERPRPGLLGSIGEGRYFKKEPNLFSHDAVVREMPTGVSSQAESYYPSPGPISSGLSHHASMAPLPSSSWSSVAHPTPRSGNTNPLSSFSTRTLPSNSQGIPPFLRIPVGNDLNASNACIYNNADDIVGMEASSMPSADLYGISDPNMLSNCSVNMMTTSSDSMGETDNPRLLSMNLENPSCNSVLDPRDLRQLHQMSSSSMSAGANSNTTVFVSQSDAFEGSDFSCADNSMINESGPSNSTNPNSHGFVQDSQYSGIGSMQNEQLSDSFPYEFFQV
Procedure: DNA binding reaction (20 μL) was carried out in 1×DNA Binding Buffer (10 mM Tris, 40 mM NaCl, 1 mM EDTA, 4% glycerol) with 10 nM c-Rel protein and 0.5 ng phosphor-labeled CD28RE oligonucleotide for 10 minutes at room temperature in 96-well plates. Test compounds, in serial dilutions, were added into each well, and further incubated for 15 minutes before loading onto native 5% polyacrylamide gel. Electrophoresis proceeded for 2.5 hours at 160V. Radioactive signals were quantified using Phospho-Imager. IC50 of compounds of example 1 to 75 were determined by quantifying the intensity of Rel/NF-κB inhibition in EMSA using phospho-imager. An example of EMSA data of the present invention is shown for compound 6 in FIG. 2.

## O=c1[nH]cc(F)c(=O)[nH]1 [5-FU, 5-fluorouracil, reference compound]
[1]
  IC50: 27 µM
[2]
  IC50: 4.72 µM
[3]
  IC50: 15.9 µM
[4]
  IC50: 5.2 µM
[5]
  IC50: 31.9 µM
[6]
  IC50: > 64 µM

## Nc1ccn([C@@H]2O[C@H](CO)[C@@H](O)C2(F)F)c(=O)n1 [Gemcitabine, gemcitabine, reference compound]
[7]
  IC50: 0.051 µM
[8]
  IC50: > 16 µM
[9]
  IC50: > 16 µM
[10]
  IC50: > 16 µM
[11]
  IC50: > 16 µM
[12]
  IC50: 0.012 µM

## CCCCCCOc1cc2oc3nc(=O)[nH]c(=O)c-3cc2cc1F [IT-835]
[13]
  IC50: > 16 µM
[14]
  IC50: > 16 µM
[15]
  IC50: 3.26 µM
[16]
  IC50: > 16 µM
[17]
  IC50: 5.4 µM
[18]
  IC50: 0.985 µM
[19]
  IC50: > 16 µM

## CC(C)CCCOc1cc2oc3nc(=O)[nH]c(=O)c-3cc2cc1F [IT-839]
[20]
  IC50: > 16 µM
[7]
  IC50: > 16 µM
[8]
  IC50: > 16 µM
[1]
  IC50: 4.34 µM
[2]
  IC50: > 16 µM
[3]
  IC50: > 16 µM
[9]
  IC50: 2.01 µM
[10]
  IC50: > 16 µM
[4]
  IC50: > 16 µM
[11]
  IC50: 6.93 µM
[12]
  IC50: > 16 µM
[5]
  IC50: > 16 µM
[6]
  IC50: > 16 µM
[21]
  IC50: 10.5 µM
[22]
  IC50: 3.35 µM

## CCCCCCCOc1ccc2cc3c(=O)[nH]c(=O)nc-3oc2c1Cl [IT-846]
[13]
  IC50: > 16 µM
[14]
  IC50: > 16 µM
[15]
  IC50: 2.34 µM
[16]
  IC50: 8.51 µM
[17]
  IC50: 3.39 µM
[18]
  IC50: 0.456 µM
[19]
  IC50: 4.27 µM

## O=C(O)CCCCCOc1ccc2cc3c(=O)[nH]c(=O)nc-3oc2c1Cl [IT-855]
[13]
  IC50: 9.15 µM
[14]
  IC50: 8.15 µM
[15]
  IC50: > 16 µM
[16]
  IC50: > 16 µM
[17]
  IC50: > 16 µM
[18]
  IC50: > 16 µM
[19]
  IC50: > 16 µM

## COCCOCCOc1ccc2cc3c(=O)[nH]c(=O)nc-3oc2c1Cl [IT-876]
[13]
  IC50: > 16 µM
[14]
  IC50: 8.5 µM
[15]
  IC50: > 16 µM
[16]
  IC50: > 16 µM
[17]
  IC50: 17.7 µM
[18]
  IC50: 8.67 µM
[19]
  IC50: 4.9 µM

## COCCCCOc1ccc2cc3c(=O)[nH]c(=O)nc-3oc2c1Cl [IT-878]
[20]
  IC50: > 16 µM
[7]
  IC50: > 16 µM
[8]
  IC50: > 16 µM
[1]
  IC50: > 16 µM
[2]
  IC50: > 16 µM
[3]
  IC50: > 16 µM
[9]
  IC50: > 16 µM
[10]
  IC50: > 16 µM
[4]
  IC50: > 16 µM
[11]
  IC50: > 16 µM
[12]
  IC50: 17.8 µM
[5]
  IC50: > 16 µM
[6]
  IC50: > 16 µM
[21]
  IC50: > 16 µM
[22]
  IC50: 3.45 µM

## CC(=O)OCCCOc1ccc2cc3c(=O)[nH]c(=O)nc-3oc2c1Cl [compound 59]
[23]
  IC50: < 5 µM

## CC(=O)OCCCCOc1ccc2cc3c(=O)[nH]c(=O)nc-3oc2c1Cl [compound 60, 4-((9-chloro-2,4-dioxo-3,4-dihydro-2H-chromeno[2,3-d]pyrimidin-8-yl)oxy)butyl acetate]
[23]
  IC50: < 5 µM

## COCCOCCOc1ccc2cc3c(=O)[nH]c(=O)nc-3oc2c1 [compound 61, 8-(2-(2-methoxyethoxy)ethoxy)-2H-chromeno[2,3-d]pyrimidine-2,4(3H)-dione]
[23]
  IC50: < 1 µM

## COCCOCCOc1ccc2cc3c(=O)[nH]c(=O)nc-3oc2c1Cl [compound 62]
[23]
  IC50: < 1 µM
